Tests used:
[1] = tested on: wild larvae zebrafish; assay: Behavior tracking of wild-type zebrafish larvae treated with GHSR-1a antagonist; type: in vivo; details: wild-type (AB) embryos treated from 6 hpf to 3 dpf; 0.08 uM/L YIL781 (FIG. 4)
Method: Zebrafish embryos (AB) were treated with different concentrations of YIL781 (0.08 uM, 0.4 uM, 2 uM, 10 uM, 50 uM) from 6 hpf to 3 dpf, and the behavior was detected by viewpoint behavioral recorder. The concrete scheme was as follows: [table]

[2] = tested on: ghrelin mutant zebrafish; assay: Behavior tracking of ghrelin mutant zebrafish larvae treated with methylphenidate; type: in vivo; details: ghrelin-/- embryos, 10 uM for 1 h at 3 dpf (FIG. 6)
Method: The embryos produced by ghrelin+/+, ghrelin−/− zebrafish intercross were treated with Methylphenidate at 72 hpf for 1 h. Pick a single hatched zebrafish larvae into a 96-well plate, behavior was tested as following table. After test, the genotype of the zebrafish larvae was identified by PCR and enzyme digestion.
The ghrelin^−/− embryos were treated with 10 uM methylphenidate for 1 h at 3 dpf, and the movement distance was measured by behavior recorder.

`Cc1nc2ccc(Oc3ccc(F)cc3)cc2c(=O)n1C[C@H]1CCCN(C(C)C)C1` [YIL781] was tested, and the “activity phenotype of normal zebrafish larvae (behavioral recorder)” value [1] was “induced normal zebrafish to produce a hyperactivity phenotype”.
`COC(=O)C(c1ccccc1)C1CCCCN1` (stereo not drawn) [methylphenidate] was tested, and the “movement distance of ghrelin mutant after treatment” value [2] was “decreased its movement distance” and the “movement distance of treated ghrelin mutant compared with the control group” value [2] was “no significantly different with the control group”.

Reference: US20180273598A1, “ADHD MARKER, APPLICATION THEREOF AND KIT” (WENZHOU KANGNING HOSPITAL CO., LTD., priority 2017, published 2018)
